Data published in patent publication EP4725941A1, “ARYLAMIDE DERIVATIVE HAVING ANTITUMOR ACTIVITY” (priority 2020, dated 2021).
Where two headings read alike, the source gives them in different places.

Legend:
[1] = Human liver microsome stability; type: in vitro ADME; conditions: human liver microsomes, pH 7.4
BRAF = target: T1, BRAF (Homo sapiens, UniProt P15056); assay: BRAF-inhibiting activity, time-resolved fluorescence-fluorescence resonance energy transfer assay; type: biochemical
T1 construct: purchased Eurofins Genomics KK; (BRAF); Thermo Fisher Scientific Inc. (MEK1)
T1 sequence (P15056 417-766 limits assumed): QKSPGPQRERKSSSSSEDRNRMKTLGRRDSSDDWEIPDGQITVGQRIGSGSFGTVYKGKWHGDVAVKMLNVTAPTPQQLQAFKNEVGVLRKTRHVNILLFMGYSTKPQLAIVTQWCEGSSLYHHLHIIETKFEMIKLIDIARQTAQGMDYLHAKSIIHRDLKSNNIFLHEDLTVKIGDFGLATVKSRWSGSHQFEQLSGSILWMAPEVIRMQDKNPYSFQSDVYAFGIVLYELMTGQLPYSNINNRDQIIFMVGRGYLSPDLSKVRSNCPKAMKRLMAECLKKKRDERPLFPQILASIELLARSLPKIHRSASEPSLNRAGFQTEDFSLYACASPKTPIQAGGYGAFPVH
Procedure: The BRAF-inhibiting activity of the compounds listed in Table 3 below was evaluated by the time-resolved fluorescence-fluorescence resonance energy transfer assay as described below.

A549 = assay: Cell proliferation-inhibiting activity (ATP in viable cells, CellTiter-Glo), A549; type: cell-based, human; conditions: A549, 96 h, read-out: A549 IC50
NCI-H2122 = assay: Cell proliferation-inhibiting activity (ATP in viable cells, CellTiter-Glo), NCI-H2122; type: cell-based, human; conditions: NCI-H2122, 96 h, read-out: NCI-H2122 IC50
MEK1 = target: T2, MEK1 (Homo sapiens, UniProt Q02750); assay: MEK1-inhibiting activity, fluorescent polarization method (CRAF/MEK1/ERK2 cascade, IMAP); type: biochemical
T2 construct: purchased Thermo Fisher Scientific Inc. (MEK1, CRAF); Carna Biosciences, Inc. (ERK2)
T2 sequence (Q02750 whole entry): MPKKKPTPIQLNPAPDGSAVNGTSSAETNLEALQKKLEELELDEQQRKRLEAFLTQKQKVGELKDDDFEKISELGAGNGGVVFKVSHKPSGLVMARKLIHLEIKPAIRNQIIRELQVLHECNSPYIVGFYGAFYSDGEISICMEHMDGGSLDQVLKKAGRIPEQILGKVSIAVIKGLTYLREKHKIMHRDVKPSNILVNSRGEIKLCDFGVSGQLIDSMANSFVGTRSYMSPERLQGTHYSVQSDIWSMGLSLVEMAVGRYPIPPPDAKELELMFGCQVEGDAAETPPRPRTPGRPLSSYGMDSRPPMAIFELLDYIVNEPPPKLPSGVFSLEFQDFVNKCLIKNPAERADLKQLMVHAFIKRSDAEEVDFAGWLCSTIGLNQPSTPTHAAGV
Procedure: The MEK1-inhibiting activity of the compounds listed in Table 3 below were evaluated by the fluorescent polarization method as described below.

[2] = human lung cancer cells, 4 days

SMILES	microsomal CLint at 0.99 µM [1] [µL/min/mg]	IC50 (BRAF; read-out: BRAF IC50; Table 3) [nM]	IC50 (A549; [2]) [nM]	IC50 (NCI-H2122; [2]) [nM]	IC50 (MEK1; Table 3, read-out: MEK1 IC50) [nM]	IC50 (BRAF; Table 3; read-out: BRAF IC50) [nM]	IC50 (MEK1) [nM]	IC50 (A549; Homo sapiens) [nM]	IC50 (NCI-H2122; Homo sapiens) [nM]
COCCNS(=O)(=O)Nc1nccc(Cc2cc(C(=O)NOC(C)C)c(Nc3ccc(I)cc3F)c(F)c2F)c1F [Compound A-11, 3,4-Difluoro-2-(2-fluoro-4-iodoanilino)-5-[[3-fluoro-2-(2-methoxyethylsulfamoylamino)pyridin-4-yl]methyl]-N-propan-2-yloxybenzamide]	128	9	1	1	7	–	–	–	–
CNS(=O)(=O)Nc1nccc(Cc2cc(C(N)=O)c(Nc3ccc(Br)cc3F)c(F)c2F)c1F [Compound A-27, 2-(4-bromo-2-fluoroanilino)-3,4-difluoro-5-[[3-fluoro-2-(methylsulfamoylamino)pyridin-4-yl]methyl]benzamide]	4	7	24	10	32	–	–	–	–
CNS(=O)(=O)Nc1cc(Cc2cc(C(N)=O)c(Nc3ccc(I)cc3F)c(F)c2F)ccn1 [Compound C-3, 3,4-difluoro-2-(2-fluoro-4-iodoanilino)-5-[[2-(methylsulfamoylamino)pyridin-4-yl]methyl]benzamide]	9	3	1	0.4	12	–	–	–	–
COCCNS(=O)(=O)Nc1cc(Cc2cc(C(N)=O)c(Nc3ccc(I)cc3F)c(F)c2F)ccn1 [Compound C-2, 3,4-Difluoro-2-(2-fluoro-4-iodoanilino)-5-[[2-(2-methoxyethylsulfamoylamino)pyridin-4-yl]methyl]benzamide]	17	2	16	7	104	–	–	–	–
COCCS(=O)(=O)Nc1cccc(Cc2cc(C(N)=O)c(Nc3ccc(I)cc3F)c(F)c2F)c1 [Compound F-3, 3,4-Difluoro-2-(2-fluoro-4-iodoanilino)-5-[[3-(2-methoxyethylsulfonylamino)phenyl]methyl]benzamide]	28	5	8	24	380	–	–	–	–
CCCS(=O)(=O)Nc1nccc(Cc2cc(C(N)=O)c(Nc3ccc(I)cc3F)c(F)c2F)c1F [Compound B-8]	24	7	95	14	47	–	–	–	–
NC(=O)c1cc(Cc2ccnc(NS(=O)(=O)NC34CC(C3)C4)c2F)c(F)c(F)c1Nc1ccc(I)cc1F [Compound A-28, 5-[[2-(1-Bicyclo[1.1.1]pentanylsulfamoylamino)-3-fluoropyridin-4-yl]methyl]-3,4-difluoro-2-(2-fluoro-4-iodoanilino)benzamide]	11	9	5	2	13	–	–	–	–
CNS(=O)(=O)Nc1nccc(Cc2cc(C(=O)NOC)c(Nc3ccc(Cl)cc3F)c(F)c2F)c1F [Compound G-4, 2-(4-Chloro-2-fluoroanilino)-3,4-difluoro-5-[[3-fluoro-2-(methylsulfamoylamino)pyridin-4-yl]methyl]-N-methoxybenzamide]	26	4	28	12	53	–	–	–	–
CNS(=O)(=O)Nc1nccc(Cc2cc(C(N)=O)c(Nc3ccc(I)cc3C)c(F)c2F)c1F [Compound C-5, 3,4-Difluoro-5-[[3-fluoro-2-(methylsulfamoylamino)pyridin-4-yl]methyl]-2-(4-iodo-2-methylanilino)benzamide]	29	3	22	4	56	–	–	–	–
NC(=O)c1cc(Cc2cccc(NS(=O)(=O)C3CCC3)c2F)c(F)c(F)c1Nc1ccc(I)cc1F [Compound E-20, 5-[[3-(Cyclobutylsulfonylamino)-2-fluorophenyl]methyl]-3,4-difluoro-2-(2-fluoro-4-iodoanilino)benzamide]	18	13	37	11	467	–	–	–	–
COCC(C)(C)NS(=O)(=O)Nc1cccc(Cc2cc(C(N)=O)c(Nc3ccc(I)cc3F)c(F)c2F)c1F [Compound D-2, 3,4-Difluoro-2-(2-fluoro-4-iodoanilino)-5-[[2-fluoro-3-[(1-methoxy-2-methylpropan-2-yl)sulfamoylamino]phenyl]methyl]benzamide]	103	3	9	5	242	–	–	–	–
CC(O)CNS(=O)(=O)Nc1nccc(Cc2cc(C(N)=O)c(Nc3ccc(I)cc3F)c(F)c2F)c1F (racemic) [Compound A-17, (+/-)-3,4-difluoro-5-[[3-fluoro-2-(2-hydroxypropylsulfamoylamino)pyridin-4-yl]methyl]-2-(2-fluoro-4-iodoanilino)benzamide]	6	–	53	15	–	4	6	–	–
COCCNS(=O)(=O)Nc1cccc(Cc2cc(C(N)=O)c(Nc3ccc(I)cc3F)c(F)c2F)c1F [Compound D-1, 3,4-Difluoro-2-(2-fluoro-4-iodoanilino)-5-[[2-fluoro-3-(2-methoxyethylsulfamoylamino)phenyl]methyl]benzamide]	25	1	9	5	96	–	–	–	–
C#Cc1ccc(Nc2c(C(N)=O)cc(Cc3ccnc(NS(=O)(=O)NC)c3F)c(F)c2F)c(F)c1 [Compound A-26, 2-(4-Ethynyl-2-fluoroanilino)-3,4-difluoro-5-[[3-fluoro-2-(methylsulfamoylamino)pyridin-4-yl]methyl]benzamide]	13	–	–	–	5	9	–	7	2
NC(=O)c1cc(Cc2cccc(NS(=O)(=O)CCCF)c2F)c(F)c(F)c1Nc1ccc(I)cc1F [Compound E-15, 3,4-Difluoro-5-[[2-fluoro-3-(3-fluoropropylsulfonylamino)phenyl]methyl]-2-(2-fluoro-4-iodoanilino)benzamide]	21	4	20	7	287	–	–	–	–
NC(=O)c1cc(Cc2cccc(NS(=O)(=O)C3COC3)c2F)c(F)c(F)c1Nc1ccc(I)cc1F [Compound E-21]	13	24	30	14	189	–	–	–	–
CCNS(=O)(=O)Nc1nccc(Cc2cc(C(N)=O)c(Nc3ccc(I)cc3F)cc2F)c1F [Compound I-2, 5-[[2-(Ethylsulfamoylamino)-3-fluoropyridin-4-yl]methyl]-4-fluoro-2-(2-fluoro-4-iodoanilino)benzamide]	12	3	25	11	47	–	–	–	–
CNS(=O)(=O)Nc1nccc(Cn2cc(C(N)=O)c(Nc3ccc(I)cc3F)c(F)c2=O)c1F [Compound N-1, 5-Fluoro-4-(2-fluoro-4-iodoanilino)-1-[[3-fluoro-2-(methylsulfamoylamino)pyridin-4-yl]methyl]-6-oxopyridine-3-carboxamide]	8	2	20	28	1	–	–	–	–
NC(=O)c1cc(Cc2cccc(NS(N)(=O)=O)c2F)c(F)c(F)c1Nc1ccc(I)cc1F [Compound E-8, 3,4-Difluoro-2-(2-fluoro-4-iodoanilino)-5-[[2-fluoro-3-(sulfamoylamino)phenyl]methyl]benzamide]	1	2	3	2	137	–	–	–	–
CNS(=O)(=O)Nc1nccc(Cc2cc(C(N)=O)c(Nc3ccc4sccc4c3)c(F)c2F)c1F [Compound H-2, 2-(1-Benzothiophen-5-ylamino)-3,4-difluoro-5-[[3-fluoro-2-(methylsulfamoylamino)pyridin-4-yl]methyl]benzamide]	77	2	31	16	49	–	–	–	–
CCS(=O)(=O)Nc1cccc(Cc2cc(C(=O)NC3CC3)c(Nc3ccc(I)cc3F)c(F)c2F)c1F [Compound D-8, N-Cyclopropyl-5-[[3-(ethylsulfonylamino)-2-fluorophenyl]methyl]-3,4-difluoro-2-(2-fluoro-4-iodoanilino)benzamide]	20	21	66	8	161	–	–	–	–
C=Cc1ccc(Nc2c(C(N)=O)cc(Cc3ccnc(NS(=O)(=O)NC)c3F)c(F)c2F)c(F)c1 [Compound A-19, 2-(4-Ethenyl-2-fluoroanilino)-3,4-difluoro-5-[[3-fluoro-2-(methylsulfamoylamino)pyridin-4-yl]methyl]benzamide]	35	–	–	–	30	3	–	6	5
CCCS(=O)(=O)Nc1cccc(Cc2cc(C(N)=O)c(Nc3ccc(I)cc3F)c(F)c2F)c1F [Compound E-18, 3,4-Difluoro-2-(2-fluoro-4-iodoanilino)-5-[[2-fluoro-3-(propylsulfonylamino)phenyl]methyl]benzamide]	29	5	7	8	366	–	–	–	–
